Test results as given in patent US11939612B2, “Process for preparing sphingolipids” (Evonik Operations GmbH, priority 2018, dated 2024).

What was measured:
[1] = Hair breakage measurement (Cyclic Tester), repair after acidic straightening; conditions: acid-straightened ethnic hair, test conditioner, 5 treatments, FIG. 3
Protocol: Ethnic hair was acid-straightened and aftertreated with a conditioner that contained one of the claimed compositions with elevated triglyceride content, consisting of: 10% olive oil-based ceramide (Example 2). For comparison, the process was conducted with a corresponding amount of pure ceramide NG or pure olive oil.
The repair effect and the boosting of the CMC complex by means of Hair fatigue alpha were measured.
Ethnic hair was chemically straightened. For this purpose, an acidic standard formulation having a pH of about 1-2 was used in combination with the use of a straightening iron. Subsequently, the hair was treated as follows: • 1. Washing with a shampoo consisting of sodium lauryl ether sulfate and cocamidopropylbetaine. • 2. Application of the test conditioner; the contact time was 5 min. Subsequently, the hair tresses were rinsed under flowing tap water at a temperature of 37° C. for 1 min. • 3. Drying of the hair tresses with a hairdryer for 3 minutes.
These three treatment steps were conducted a total of 5×. […]
For quantification of the repair effect, a hair breakage measurement was conducted (Cyclic Tester, Diastron Limited, UK). […] The number of extension cycles survived is recorded and serves to calculate the probability of survival. […]

[2] = Solubility temperature and crystal-free incorporation into cosmetic oils; assay type: physicochemical; conditions: for Appearance at RT: after cooling
Protocol: For this purpose, the solubility temperatures of the sphingolipids were ascertained: A final concentration of 0.1% ceramide in cosmetic oil was chosen. The ceramide compositions were heated and stirred gradually in the cosmetic oils in a beaker on a hotplate. The solubility temperature was attained as soon as the solution was clear. Subsequently, the mixture was stirred at the solubility temperature ascertained for 1 hour. After it had cooled down to room temperature, the formulation was examined.

[3] = 0.1% ceramide in Mineral Oil (non-polar)
[4] = 0.1% ceramide in Octyldodecanol (polar)
[5] = 0.1% ceramide in TEGOSOFT APM (polar)
[6] = 0.1% ceramide in TEGOSOFT CT (polar-medium polar)
[7] = 0.1% ceramide in TEGOSOFT M (medium polar)
[8] = 0.1% ceramide in TEGOSOFT OS (non-polar)

Substance | repair effect (probability of survival in the hair breakage test) [1] | Solubility temperature [2, 3] | Appearance at RT [2, 3] | Solubility temperature [2, 4] | Appearance at RT [2, 4] | Solubility temperature [2, 5] | Appearance at RT [2, 5] | Solubility temperature [2, 6] | Appearance at RT [2, 6] | Solubility temperature [2, 7] | Appearance at RT [2, 7] | Solubility temperature [2, 8] | Appearance at RT [2, 8]
ceramide NG | not able to achieve any repair effect |  |  |  |  |  |  |  |  |  |  |  | 
ceramide NP [Pure ceramide NP] |  | 110 °C | crystals | 70 °C | crystals | 65 °C | crystals | 95 °C | crystals | 90 °C | crystals | 100 °C | crystals
